# Source: patent US20120115798A1, “METHOD FOR IMPROVING THE IMMUNITY OF A COMPANION ANIMAL” (priority 2010, published 2012)
# Columns and labels:
# Assay type in all cases: in vivo, dog (Labrador Retrievers)
# CD18+ immune cells = test: Flow cytometry of CD18+ immune cells in blood of dogs fed mannoheptulose diet; conditions: for CD18+ immune cells: analyzed by age
# Description: Eighty (n=80) Labrador Retrievers were randomized by age, gender, and littermate to receive either a complete and nutritionally balanced control diet that is similar to Eukanuba Senior Large Breed or an experimental diet that is identical to the control diet except for the inclusion of mannoheptulose as disclosed below. The dogs were split into two study groups. Study 1: A total of 39 older Labrador Retrievers are fed a nutritionally-balanced composition providing mannoheptulose at levels of 0 or about 2 mg/kg of body weight of the dog. Average age of the dogs (12 neutered males, 27 spayed females) at the start of a 4-year study is 6.7 years with a range of 5.1 to 8.2 years of age for the youngest and oldest dog within the cohort, respectively. The control composition is fed as a nutritionally-balanced composition, and it contains no mannoheptulose (0 mg/kg), avocado extract, avocado meal, or avocado concentrate. The test composition is the nutritionally-balanced control composition formulated with avocado extract, avocado meal, or avocado concentrate to provide mannoheptulose at a dose of about 2 mg/kg body weight of the dog. Older dogs are fed one-half their daily allotment of food at 0730 and 1430 each day. Dogs were fed to maintain body weight and body composition score (BCS) within a 2-4 score range. If food adjustments were made, they were made on a quarterly basis. All dogs were fasted overnight and morning meals were withheld until blood collections could be conducted for all immune measurements. Water is provided ad lib. Study 2: A total of 41 younger Labrador Retrievers are fed a nutritionally-balanced composition providing mannoheptulose at levels of 0 or about 2 mg/kg of body weight of the dog. Average age of the dogs (12 neutered males, 29 spayed females) at the start of the 36-month feeding study is 4.0 years with a range of 2.0 to 6.1 years of age for the youngest and oldest dog within the cohort, respectively. […] Cell populations were analyzed on a FACScan Flow Cytometer (Becton Dickinson) using CellQuest Pro Software.
# 8-OHdG = test: Serum 8-OHdG ELISA (DNA oxidation) in dogs fed mannoheptulose diet
# Description: 8-Oxo-2′-deoxyguanosine (8-OHdG) is an oxidized derivative of deoxyguanosine. 8-OHdG is one of the major products of DNA oxidation. As part of the immune response, T and B cells must proliferate (become activated and divide). A key step to robust proliferation is DNA replication. If cells have damaged DNA or must repair DNA, this crucial step can be hindered. […] By lowering DNA damage in the mannoheptulose fed dogs, immune cell replication would be facilitated, helping to enable a key step in the activation cascade of the immune system. Eighty (n=80) Labrador Retrievers were randomized by age, gender, and littermate to receive either a complete and nutritionally balanced control diet that is similar to Eukanuba Senior Large Breed or an experimental diet that is identical to the control diet except for the inclusion of mannoheptulose as disclosed below. The dogs were split into two study groups. Study 1: A total of 39 older Labrador Retrievers are fed a nutritionally-balanced composition providing mannoheptulose at levels of 0 or about 2 mg/kg of body weight of the dog. […] Amount of 8-OHDG is quantified using a commercially available ELISA kit from Oxis Health Products, catalog #21026. […] Add […] of the Stop Solution, mix, wait 3 minutes and read the absorbance at 450 nm.
# T cells = test: Lymphocyte blastogenesis (3H-thymidine), T cell mitogenic stimulation of PBMCs from dogs fed mannoheptulose diet
# Description: (§1) Phytohaemagglutinin (PHA), the lectin extract from the red kidney bean (Phaseolus vulgaris), contains potent, T-cell mitogenic activity (Hammerstrom, S. et al. (1982) Proc. Nall. Acad. Sci. USA 79, 1611-1615). Pokeweed mitogen (PWM), derived from Phytolacca Americana, is a B cell mitogen (Schreck et al., Annals of Clinical and Laboratory Science, Vol 12, Issue 6, 455-462). Together these three mitogens are used to stimulate immune cells in vitro in the lymphocyte blastogenesis assay, a well accepted indicator of immune response in vivo. Many studies have shown this assay to be responsive to the age-associated decline in immune system response (Goldrosen et al., 1977—Journal of surgical oncology 9: 229-234). A lower proliferative capacity indicates the immune cells cannot become activated and multiply as efficiently (a key step in the process of mounting an effective immune response).
# Eighty (n=80) Labrador Retrievers were randomized by age, gender, and littermate to receive either a complete and nutritionally balanced control diet that is similar to Eukanuba Senior Large Breed or an experimental diet that is identical to the control diet except for the inclusion of mannoheptulose as disclosed below. The dogs were split into two study groups.
# Study 1: A total of 39 older Labrador Retrievers are fed a nutritionally-balanced composition providing mannoheptulose at levels of 0 or about 2 mg/kg of body weight of the dog. Average age of the dogs (12 neutered males, 27 spayed females) at the start of a 4-year study is 6.7 years with a range of 5.1 to 8.2 years of age for the youngest and oldest dog within the cohort, respectively. The control composition is fed as a nutritionally-balanced composition, and it contains no mannoheptulose (0 mg/kg), avocado extract, avocado meal, or avocado concentrate. The test composition is the nutritionally-balanced control composition formulated with avocado extract, avocado meal, or avocado concentrate to provide mannoheptulose at a dose of about 2 mg/kg body weight of the dog. […]
# B cells = test: Lymphocyte blastogenesis (3H-thymidine), B cell mitogenic stimulation of PBMCs from dogs fed mannoheptulose diet
# Description: as §1
# Eighty (n=80) Labrador Retrievers were randomized by age, gender, and littermate to receive either a complete and nutritionally balanced control diet that is similar to Eukanuba Senior Large Breed or an experimental diet that is identical to the control diet except for the inclusion of mannoheptulose as disclosed below. The dogs were split into two study groups. […]
# [1] = summary table, aging dogs consuming diet with MH, direction of change
structure (smiles),measurement,setting,value
O=C(CO)[C@@H](O)[C@@H](O)[C@H](O)[C@H](O)CO [mannoheptulose],CD18+ immune cells,"CD18+ immune cells; dog group 1 (older dogs), test diet delivering 2 mg mannoheptulose per kg body weight vs diet matched controls, FIG. 1",significant attenuation in the increase of CD18+ immune cells
same,CD18+ immune cells,"CD18+ immune cells; dog group 2 (younger dogs), test diet with mannoheptulose about 2 mg/kg vs diet matched controls, FIG. 2",trend for attenuation in the increase of CD18+ immune cells
same,% CD18 + cells,CD18+ immune cells; [1],↓
same,serum 8-OHdG,"8-OHdG; dog group 1, mannoheptulose diet vs control diet, FIG. 9",significantly lower serum 8-OHdG
same,DNA damage,8-OHdG; [1],↓
same,T cell mitogenic stimulation to ConA,"T cells; dog groups 1 and 2, mannoheptulose diet about 2 mg/kg vs control diet, FIGS. 3 and 4",either a statistical trend or a statistical improvement in T cell mitogenic stimulation to ConA
same,T cell mitogenic stimulation to PHA,"T cells; dog groups 1 and 2, mannoheptulose diet about 2 mg/kg vs control diet, FIGS. 5 and 6",either a statistical trend or a statistical improvement in T cell mitogenic stimulation to PHA
same,T cell proliferation,T cells; [1],↑
same,B cell mitogenic stimulation to PWM,"B cells; dog groups 1 and 2, mannoheptulose diet about 2 mg/kg vs control diet, FIGS. 7 and 8",either a statistical trend or a statistical improvement in B cell mitogenic stimulation to PWM
same,B cell proliferation,B cells; [1],↑
